Experiments:
Mtb Lpd = Mtb Lpd (Mycobacterium tuberculosis (strain ATCC 25618 / H37Rv), UniProt P9WHH9); type: biochemical; details: read-out: LPD IC50
[1] = microsomes

Structure (SMILES) | IC50 (Mtb Lpd) [nM] | Human Liver Microsome Stability [1] [µL/min/mg]
CNCc1n[nH]c2c(S(=O)(=O)N(C)CC(=O)Cc3ccn(C)c(=O)c3)cc(C)cc12 [Example 44] | 130 | -2
CCN(CC(=O)NC1=CC(=O)C(C)C=C1)S(=O)(=O)c1cc(C)cc2cn[nH]c12 (centres unmarked) [Example 45] | 26.8 | 39
Cc1cc(S(=O)(=O)N(C)CC(=O)Nc2ccn3cccc3c2)c2[nH]ncc2c1 [Example 46, 2-((N,5-dimethyl-1H-indazole)-7-sulfonamido)-N-(imidazo[1,5-a]pyridin-7-yl)acetamide] | 6.7 | 4
Cc1cc(S(=O)(=O)N(CC(=O)NC2=CC(=O)C(C)C=C2)C(C)C)c2[nH]ncc2c1 (centres unmarked) [Example 47] | 434 | -9
Cc1cc(S(=O)(=O)N(C)CC(=O)Nc2ccc3nccn3c2)c2n[nH]cc2c1 [Example 48] | 42.1 | 36
Cc1cc(S(=O)(=O)N(C)CC(=O)NCc2ccccc2)c2n[nH]cc2c1 [Example 49] | 31 | 43
Cc1cc(S(=O)(=O)N(C)CC(=O)NC2COC2)c2n[nH]cc2c1 [Example 50] | 73.8 | 8
COc1ccc(CNC(=O)CN(C)S(=O)(=O)c2cc(C)cc3c[nH]nc23)cc1 [Example 51] | 49 | 70
Cc1cc(S(=O)(=O)N(C)CC(=O)Nc2ccc3ncccc3c2)c2n[nH]cc2c1 [Example 52] | 21.8 | 113
Cc1cc(S(=O)(=O)N(C)CC(=O)Nc2ccc3cnccc3c2)c2n[nH]cc2c1 [Example 57] | 32.8 | 59
Cc1cc(S(=O)(=O)N(C)CC(=O)Nc2ccc3cccnc3c2)c2n[nH]cc2c1 [Example 61] | 22.9 | 122
Cc1cc(S(=O)(=O)N(C)CC(=O)Nc2ccc3ccncc3c2)c2n[nH]cc2c1 [Example 63] | 32.1 | 63
Cc1cc(S(=O)(=O)N2CC[C@H]2C(=O)Nc2ccc3ccncc3c2)c2[nH]ncc2c1 [Example 71] | 51.3 | 132
COc1ccc(NC(=O)[C@@H]2CCN2S(=O)(=O)c2cc(C)cc3cn[nH]c23)cc1Cl [Example 74] | 48.8 | 325
Cc1cc(S(=O)(=O)N(C)CC(=O)Nc2nc3ccccc3o2)c2n[nH]cc2c1 [Example 76] | 99.4 | 274
Cc1cc(S(=O)(=O)N2CC[C@H]2C(=O)Nc2ccc3cnccc3c2)c2[nH]ncc2c1 [Example 85] | 23 | 93
Cc1cc(S(=O)(=O)N2CC[C@H]2C(=O)Nc2ccc3ncccc3c2)c2[nH]ncc2c1 [Example 87] | 35 | 111
Cc1cc(S(=O)(=O)N(C)CC(=O)Nc2ccc3c(c2)OCCN3C2COC2)c2[nH]ncc2c1 [Example 94] | 27.5 | 45
Cc1cc(S(=O)(=O)N(C)CC(=O)Nc2ccn(C)c(=O)c2)c2n[nH]c(F)c2c1 [Example 95] | 51.3 | 21
Cc1cc(S(=O)(=O)N2CCC(C(=O)Nc3ccn(C)c(=O)c3)C2)c2[nH]ncc2c1 (centres unmarked) [Example 97] | 41.9 | -5
Cc1cc(S(=O)(=O)N(C)CC(=O)Nc2ccn(C3CC3)c(=O)c2)c2[nH]ncc2c1 [Example 98] | 93 | 28
Cc1cc(S(=O)(=O)N(C)CC(=O)Nc2ccn(C3COC3)c(=O)c2)c2[nH]ncc2c1 [Example 99] | 56 | 17
Cc1cc(S(=O)(=O)N(C)CC(=O)Nc2ccn(C3CCOCC3)c(=O)c2)c2[nH]ncc2c1 [Example 100] | 50 | 6
Cc1cc(S(=O)(=O)N(C)CC(=O)Nc2ccn3cnnc3c2)c2n[nH]cc2c1 [Example 102] | 42 | 31
Cc1cc(S(=O)(=O)N(C)CC(=O)Nc2ccc3c(c2)OCCN3C(C)(C)CO)c2[nH]ncc2c1 [Example 105] | 27 | 56

Structure (SMILES) | IC50 (Mtb Lpd) [nM] | Human Liver Microsome Stability [1] [µL/min/mg]
Cc1cc(S(=O)(=O)N2CC[C@H]2C(=O)Nc2ccc3cccnc3c2)c2[nH]ncc2c1 [Example 106] | 19 | 236
Cc1cc(S(=O)(=O)N(C)CC(=O)Nc2ccc3c(c2)OCCN3C2CCOCC2)c2n[nH]c(F)c2c1 [Example 121] | 25.3 | 125
Cc1cc(S(=O)(=O)N2CC[C@@H](C(=O)Nc3ccc4c(c3)OCCN4C3CCOCC3)C2)c2n[nH]cc2c1 [Example 122] | 30.4 | 26
Cc1cc(S(=O)(=O)N2CC[C@@H](C(=O)Nc3ccc4c(c3)OCCN4C3COC3)C2)c2[nH]ncc2c1 [Example 123] | 28.6 | 23
Cc1cc(S(=O)(=O)N(C)CC(=O)Nc2ccn(C)c(=O)c2)c2[nH]c(C#N)cc2c1 [Example 124, 2-((2-cyano-N,5-dimethyl-1H-indole)-7-sulfonamido)-N-(1-methyl-2-oxo-1,2-dihydropyridin-4-yl)acetamide] | 79.6 | 51
Cc1cc(S(=O)(=O)N(C)CC(=O)NCc2cn(-c3ccccc3)nn2)c2[nH]ncc2c1 [Example 125, 2-((N,5-dimethyl-1H-indazole)-7-sulfonamido)-N-((1-phenyl-1H-1,2,3-triazol-4-yl)methyl)acetamide] | 48 | 520
Cc1cc(S(=O)(=O)N2CC[C@H]2C(=O)NC2CCN(C)CC2)c2[nH]ncc2c1 [Example 129] | 6560 | 418
Cc1cc(S(=O)(=O)N(C)CC(=O)Nc2ccc3c(c2)OCCN3C2COC2)c2n[nH]c(F)c2c1 [Example 140] | 27.8 | 66
Cc1cc(S(=O)(=O)N2CC[C@H]2C(=O)Nc2ccc3c(c2)OCCN3C2COC2)c2n[nH]cc2c1 [Example 143] | 36.2 | 84
Cc1cc(S(=O)(=O)N2CC[C@H]2C(=O)Nc2ccc3c(c2)OCCN3C2CCOCC2)c2n[nH]cc2c1 [Example 144] | 37.9 | 166
CCN(CC(=O)Nc1ccc2c(c1)OCCN2C(C)(C)CO)S(=O)(=O)c1cc(C)cc2cn[nH]c12 [Example 145, 2-((N-ethyl-5-methyl-1H-indazole)-7-sulfonamido)-N-(4-(1-hydroxy-2-methylpropan-2-yl)-3,4-dihydro-2H-benzo[b][1,4]oxazin-7-yl)acetamide] | 39 | 92
Cc1cc(S(=O)(=O)N(C)CC(=O)Nc2ccc3c(c2)OCCN3CC(C)(C)O)c2[nH]ncc2c1 [Example 146] | 26 | 31
Cc1cc(S(=O)(=O)N2CC[C@H]2C(=O)Nc2ccc3c(c2)OCCN3C(C)(C)CO)c2[nH]ncc2c1 [Example 147] | 37 | 212
Cn1ccc(NC(=O)[C@@H]2CCN2S(=O)(=O)c2cc(Cl)cc3c(F)n[nH]c23)cc1=O [Example 148] | 40 | -17
Cn1ccc(NC(=O)[C@@H]2CCN2S(=O)(=O)c2cc(Cl)cc3cn[nH]c23)cc1=O [Example 149] | 61 | 14
CN(CC(=O)Nc1ccn(C)c(=O)c1)S(=O)(=O)c1cc(Cl)cc2c(F)n[nH]c12 [Example 150] | 46 | 1
Cn1ccc(NC(=O)[C@@H]2CCN2S(=O)(=O)c2cc(Br)cc3c(F)n[nH]c23)cc1=O [Example 151, (S)-1-((5-bromo-3-fluoro-1H-indazol-7-yl)sulfonyl)-N-(1-methyl-2-oxo-1,2-dihydropyridin-4-yl)azetidine-2-carboxamide] | 180 | -4
Cn1ccc(NC(=O)[C@@H]2CCN2S(=O)(=O)c2cc(C(F)F)cc3cn[nH]c23)cc1=O [Example 152, (S)-1-((5-(difluoromethyl)-1H-indazol-7-yl)sulfonyl)-N-(1-methyl-2-oxo-1,2-dihydropyridin-4-yl)azetidine-2-carboxamide] | 58 | -7
Cc1cc(S(=O)(=O)N2CC[C@H]2C(=O)Nc2ccc(N3CCN(C)CC3)c(Cl)c2)c2[nH]ncc2c1 [Example 153, (S)—N-(3-chloro-4-(4-methylpiperazin-1-yl)phenyl)-1-((5-methyl-1H-indazol-7-yl)sulfonyl)azetidine-2-carboxamide] | 48 | 113
CCN(CC(=O)Nc1ccc2c(c1)OCCN2C1CCOCC1)S(=O)(=O)c1cc(C)cc2c[nH]nc12 [Example 156] | 27.4 | 58
Cc1cc(S(=O)(=O)N(C)CC(=O)Nc2ccc3c(c2)OC(C)(C)CN3C)c2n[nH]cc2c1 [Example 158] | 22 | 46
Cc1cc(S(=O)(=O)N(C)CC(=O)Nc2ccc3c(c2)OC(C)(C)C(=O)N3C)c2n[nH]cc2c1 [Example 159] | 19 | 67
CCN(CC(=O)Nc1ccc(N2CCN(C)CC2)c(Cl)c1)S(=O)(=O)c1cc(C)cc2cn[nH]c12 [Example 160] | 106 | 107
O=C(Nc1ccc2c(c1)OCCN2C1CCOCC1)[C@@H]1CCN1S(=O)(=O)c1cc(Cl)cc2cn[nH]c12 [Example 161] | 33 | 121

From patent US20240132480A1, “INHIBITORS OF MYCOBACTERIUM TUBERCULOSIS LIPOAMIDE DEHYDROGENASE” (Cornell University, priority 2021, published 2024)
